Experimental data from patent publication EP1075471B1, “INDOLYL DERIVATIVES AS SEROTONERGIC AGENTS” (Wyeth, priority 1998, dated 1999).
pKi: −log10 of the molar value.

Target: T1, serotonin transporter (Rattus norvegicus, UniProt P31652)
T1 construct: frontal cortical membranes prepared from male S.D. rats; from tissue; host or cells: rat frontal cortex membranes (male Sprague-Dawley rats)
Assay: 3H-Paroxetine binding to assess affinity for the serotonin transporter
Settings: not given
Procedure: The affinity of drugs for the serotonin transporter was determined by assessing the ability of agents to displace specifically bound 3H-paroxetine binding from rat cortical membranes. […] Nonspecific binding was determined using fluoxetine.
^3H-Paroxetine Binding to Assess Affinity of Drugs for the Serotonin Transporter:
Briefly, frontal cortical membranes prepared from male S.D. rats were incubated with ^3H-paroxetine (0.1 nM) for 60 min at 25°C. All tubes also contained either vehicle, test compound (one to eight concentrations), or a saturating concentration of fluoxetine (10 µM) to define […]. All reactions are terminated by the addition of ice cold Tris buffer followed by rapid filtration using a Tom Tech filtration device to separate bound from free ^3H-paroxetine.

T1 sequence (P31652 whole entry): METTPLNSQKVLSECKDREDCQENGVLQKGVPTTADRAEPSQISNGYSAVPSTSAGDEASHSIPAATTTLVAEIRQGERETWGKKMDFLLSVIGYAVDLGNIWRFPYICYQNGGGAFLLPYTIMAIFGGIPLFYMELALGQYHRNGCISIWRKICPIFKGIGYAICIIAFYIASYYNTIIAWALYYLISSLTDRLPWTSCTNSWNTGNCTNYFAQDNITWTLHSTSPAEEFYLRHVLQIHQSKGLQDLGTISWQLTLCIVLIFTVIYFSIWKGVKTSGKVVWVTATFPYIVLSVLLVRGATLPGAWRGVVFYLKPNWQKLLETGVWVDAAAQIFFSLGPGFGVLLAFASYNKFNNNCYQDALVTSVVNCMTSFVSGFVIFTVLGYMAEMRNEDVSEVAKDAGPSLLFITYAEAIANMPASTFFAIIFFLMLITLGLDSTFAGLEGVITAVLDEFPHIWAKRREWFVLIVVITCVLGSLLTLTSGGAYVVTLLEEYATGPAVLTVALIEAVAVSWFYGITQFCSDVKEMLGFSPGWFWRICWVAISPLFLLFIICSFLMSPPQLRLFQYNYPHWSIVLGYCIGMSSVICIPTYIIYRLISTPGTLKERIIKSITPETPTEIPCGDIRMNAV

`COc1cccc2c1ccn2C[C@@H](O)CN1CC=C(c2c[nH]c3ccccc23)CC1` [Example 14, (2S)-1-[4-(1H-Indol-3-yl)-3,6-dihydro-2H-pyridin-1-yl]-3-(4-methoxy-indol-1-yl)-propan-2-ol] and `COc1cccc2c1ccn2CC(O)CN1CC=C(c2c[nH]c3ccccc23)CC1` (stereo not shown) [Example 11, 1-[4-(1H-Indol-3-yl)-3,6-dihydro-2H-pyridin-1-yl]-3-(4-methoxy-indol-1-yl)-propan-2-ol] are within 0.2 log units of each other in pKi: 10.52 for the first, 10.40 for the second.

Going from `OC(CN1CC=C(c2c[nH]c3ccccc23)CC1)Cn1ccc2cc(F)ccc21` (stereo not shown) [Example 8, 1-(5-Fluoro-indol-1-yl)-3-[4-(1H-indol-3-yl)-3,6-dihydro-2H-pyridin-1-yl]-propan-2-ol] to `OC(CN1CC=C(c2c[nH]c3ccccc23)CC1)Cn1ccc2c(F)cccc21` (stereo not shown) [Example 10, 1-(4-Fluoro-indol-1-yl)-3-[4-(1H-indol-3-yl)-3,6-dihydro-2H-pyridin-1-yl]-propan-2-ol], the pKi rises from 8.85 to 11.00 (2.15 log units).

`O[C@@H](CN1CC=C(c2c[nH]c3ccccc23)CC1)Cn1ccc2c(F)cccc21` [Example 15, (2S)-1-(4-Fluoro-indol-1-yl)-3-[4-(1H-indol-3-yl)-3,6-dihydro-2H-pyridin-1-yl]-propan-2-ol] and `Cc1nc2ccccc2n1CC(O)CN1CC=C(c2c[nH]c3ccccc23)CC1` (stereo not shown) [Example 13, 1-[4-(1H-Indol-3-yl)-3,6-dihydro-2H-pyridin-1-yl]-3-(2-methyl-benzoimidazol-1-yl)-propan-2-ol] are within 0.2 log units of each other in pKi: 9.52 for the first, 9.40 for the second.

Same assay, conditions: read-out: Inhibition of [3H]-Paroxetine binding Ki; compounds of formula (1); rat frontal cortical membranes, 3H-paroxetine 0.1 nM, 60 min at 25°C; nonspecific binding with fluoxetine 10 µM

`OC(CN1CC=C(c2c[nH]c3ccccc23)CC1)Cn1ccc2ccccc21` (stereo not shown) [Example 12, 1-Indol-1-yl-3-[4-(1H-indol-3-yl)-3,6-dihydro-2H-pyridin-1-yl]-propan-2-ol] gave a pKi of 8.77.
